In ChEMBL document CHEMBL1148298, “Molecular recognition of sub-micromolar inhibitors by the epinephrine-synthesizing enzyme phenylethanolamine N-methyltransferase” (J Med Chem, 2004):

Tests used:
[1] = biological target: T1, Phenylethanolamine N-methyltransferase (Bos taurus, UniProt P10938); assay: Inhibitory potency against bovine phenylethanolamine N-Methyltransferase (PNMT)
T1 sequence (P10938 whole entry): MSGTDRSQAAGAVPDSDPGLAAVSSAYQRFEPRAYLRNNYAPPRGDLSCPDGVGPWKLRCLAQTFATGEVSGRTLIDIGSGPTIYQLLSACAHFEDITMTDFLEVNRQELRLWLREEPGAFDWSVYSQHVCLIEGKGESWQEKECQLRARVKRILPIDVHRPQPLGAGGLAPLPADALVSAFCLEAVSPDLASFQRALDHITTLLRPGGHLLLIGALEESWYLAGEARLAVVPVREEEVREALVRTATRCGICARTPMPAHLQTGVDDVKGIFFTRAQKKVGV

[2] = biological target: T2, Alpha-2A adrenergic receptor (Rattus norvegicus, UniProt P22909); assay: Inhibitory potency against alpha-2-adrenoceptor
T2 sequence (P22909 whole entry): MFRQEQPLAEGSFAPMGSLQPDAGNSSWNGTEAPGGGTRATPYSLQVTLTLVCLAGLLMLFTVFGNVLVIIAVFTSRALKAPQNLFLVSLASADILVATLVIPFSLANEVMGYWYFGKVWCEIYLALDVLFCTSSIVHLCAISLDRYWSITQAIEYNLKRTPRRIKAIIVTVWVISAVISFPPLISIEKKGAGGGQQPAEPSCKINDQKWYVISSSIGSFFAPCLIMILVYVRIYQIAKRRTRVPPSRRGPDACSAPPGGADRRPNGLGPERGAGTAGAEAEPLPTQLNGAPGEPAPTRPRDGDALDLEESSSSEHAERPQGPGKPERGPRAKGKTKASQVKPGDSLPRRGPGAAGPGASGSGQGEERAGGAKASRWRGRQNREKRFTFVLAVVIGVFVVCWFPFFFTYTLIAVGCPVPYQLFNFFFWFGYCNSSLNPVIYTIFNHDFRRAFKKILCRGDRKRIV

[3] = Selectivity expressed as the ratio of Ki of alpha-2-adrenoceptor to that of PNMT
[4] = substrate: NCC1CNCc2ccccc21; assay: Michaelis-Menten constant was determined against bovine phenylethanolamine N-Methyltransferase (PNMT)
[5] = substrate: NCC1CNCc2ccccc21; assay: (§1) Vmax was determined against bovine phenylethanolamine N-Methyltransferase (PNMT)
[6] = substrate: NC[C@@H](O)c1ccccc1; assay: as §1

Molecule `OCC1CNCc2ccccc21` (stereo not drawn) has a Ki [1] of 170 µM.

In the case of `Ic1ccc2c(c1)CNCC2`, the Ki [2] is reported as 0.22 µM.

`Clc1ccc2c(c1Cl)CNCCC2` showed a Ki [2] of 4.5 µM.

B1: Phenylethanolamine N-methyltransferase (Bos taurus), P10938 (protein)
chain: T1 sequence (P10938 whole entry)
B1 gave a Km [4] of 47 µM, a Vmax (nM min-1 mg-1) [5] of 3.4 and a Vmax (nM min-1 mg-1) [6] of 2.2.
